Experiments:
[1] = test system: NanoBiT® HiBit/LgBit bioluminescent complex; type: cell-based, Oplophorus gracilirostris; conditions: HEK293 cells, optionally lysed with 50 ug/mL digitonin
Procedure: In FIG. 3B, HEK293 cells were transfected with DNA encoding an intracellular NanoBiT® HiBiT fusion protein and DNA encoding an intracellular NanoBiT® LgBiT fusion protein such that the fusion proteins were co-expressed within the cell. Transfected cells were plated at 20,000 cells/100 μL growth medium and incubated for 24 hours. Following 24 hours of expression, cells were optionally lysed with 50 ug/mL of digitonin in OptiMEM and treated with serial dilutions of HL-0005. After 2 hours of incubation at room temperature, furimazine was added (10 μM final concentration), and luminescence was measured on a GloMax® Multi+ Plate Reader.

NanoLuc = NanoLuc (Oplophorus gracilirostris, UniProt Q9GV45, A31E/A60N/A81I/F95D/I117V/K70R/L54V/L99Q/M102K/N193R/P142E/Q151K/Q38R/Q45L/V71I/Y165I); experiment: NANOLUC® (Nluc) inhibitory activity (FIG. 2); type: biochemical; conditions: Nluc 2 ng/ml in NanoGlo® buffer, 100 μM furimazine
Procedure: FIG. 2 compares the NANOLUC® (Nluc) inhibitory activity of exemplary compounds of the present invention to PBI-6096, a known Nluc inhibitor. Inhibitors were diluted into CO2-independent media with 10% FBS. Nluc was diluted to 2 ng/ml into NanoGlo® buffer with 100 μM furimazine. Serial dilutions of the inhibitors were added to the NanoLuc/furimazine/NanoGlo® solution, and samples were immediately analyzed using a GloMax®-Multi+ Plate Reader.

[2] = test system: NanoBiT® HiBit/LgBit bioluminescent complex; experiment: Inhibition of bioluminescent complex in lysed HEK293 cells expressing HiBiT fusion plus purified LgBiT (FIG. 3A); type: cell-based, Oplophorus gracilirostris; conditions: HEK293 cells lysed with digitonin, purified LgBiT added, 2 hours, 10 μM furimazine
Procedure: FIGS. 3A-3B show the inhibition of bioluminescent complexes in cells. In FIG. 3A, HEK293 cells were transfected with DNA encoding an intracellular NanoBiT® HiBiT fusion protein, plated at 20,000 cells/100 μL growth medium, and incubated for 24 hours. Following 24 hours of expression, cells were lysed with 50 ug/mL (final) of digitonin in OptiMEM and treated with purified NanoBiT® LgBiT non-luminescent polypeptide and serial dilutions of HL-0005. After 2 hours of incubation at room temperature, furimazine was added (10 μM final concentration), and luminescence was measured on a GloMax®-Multi+ Plate Reader.

Chain of NanoLuc (Q9GV45 28-196 with tags or gaps with the stated changes limits assumed): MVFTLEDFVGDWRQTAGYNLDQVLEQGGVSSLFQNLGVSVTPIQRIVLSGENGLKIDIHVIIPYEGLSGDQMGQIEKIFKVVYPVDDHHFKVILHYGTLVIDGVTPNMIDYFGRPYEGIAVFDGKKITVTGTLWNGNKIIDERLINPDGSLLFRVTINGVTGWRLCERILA

SMILES	cell permeability (IC50 values in lytic and non-lytic conditions compared) [1]	inhibition against NanoLuc (NanoLuc)	inhibition of HiBit/LgBit bioluminescent complex in a cellular context [2]
Cc1ccc(S(=O)(=O)Nc2ccccc2C(=O)Nc2cc3ccccc3s2)cc1 [HL-0005, N-(benzo[b]thiophen-2-yl)-2-((4-methylphenyl)sulfonamido)benzamide]	mostly cell permeable	do not show any appreciable inhibition	inhibition
N#Cc1c(NC(=O)c2ccccc2NS(=O)(=O)c2ccccc2)sc2c1CCC2 [HL-0010, N-(3-cyano-5,6-dihydro-4H-cyclopenta[b]thiophen-2-yl)-2-(phenylsulfonamido)benzamide]		do not show any appreciable inhibition	
Cc1ccc(S(=O)(=O)Nc2ccccc2C(=O)Nc2sc3c(c2C#N)CCCC3)cc1 [JRW-1004, N-(3-cyano-4,5,6,7-tetrahydrobenzo[b]thiophen-2-yl)-2-((4-methylphenyl)sulfonamido)benzamide]		do not show any appreciable inhibition	

From US12065421B2, “Inhibitors of oplophorus luciferase-derived bioluminescent complexes” (priority 2018, dated 2024)
